For one experiment, the target named is T1, human TLR7 (Homo sapiens, UniProt Q9NYK1).
T1 construct: host or cells: HEK-Blue-hTLR7
T1 sequence (Q9NYK1 27-1049): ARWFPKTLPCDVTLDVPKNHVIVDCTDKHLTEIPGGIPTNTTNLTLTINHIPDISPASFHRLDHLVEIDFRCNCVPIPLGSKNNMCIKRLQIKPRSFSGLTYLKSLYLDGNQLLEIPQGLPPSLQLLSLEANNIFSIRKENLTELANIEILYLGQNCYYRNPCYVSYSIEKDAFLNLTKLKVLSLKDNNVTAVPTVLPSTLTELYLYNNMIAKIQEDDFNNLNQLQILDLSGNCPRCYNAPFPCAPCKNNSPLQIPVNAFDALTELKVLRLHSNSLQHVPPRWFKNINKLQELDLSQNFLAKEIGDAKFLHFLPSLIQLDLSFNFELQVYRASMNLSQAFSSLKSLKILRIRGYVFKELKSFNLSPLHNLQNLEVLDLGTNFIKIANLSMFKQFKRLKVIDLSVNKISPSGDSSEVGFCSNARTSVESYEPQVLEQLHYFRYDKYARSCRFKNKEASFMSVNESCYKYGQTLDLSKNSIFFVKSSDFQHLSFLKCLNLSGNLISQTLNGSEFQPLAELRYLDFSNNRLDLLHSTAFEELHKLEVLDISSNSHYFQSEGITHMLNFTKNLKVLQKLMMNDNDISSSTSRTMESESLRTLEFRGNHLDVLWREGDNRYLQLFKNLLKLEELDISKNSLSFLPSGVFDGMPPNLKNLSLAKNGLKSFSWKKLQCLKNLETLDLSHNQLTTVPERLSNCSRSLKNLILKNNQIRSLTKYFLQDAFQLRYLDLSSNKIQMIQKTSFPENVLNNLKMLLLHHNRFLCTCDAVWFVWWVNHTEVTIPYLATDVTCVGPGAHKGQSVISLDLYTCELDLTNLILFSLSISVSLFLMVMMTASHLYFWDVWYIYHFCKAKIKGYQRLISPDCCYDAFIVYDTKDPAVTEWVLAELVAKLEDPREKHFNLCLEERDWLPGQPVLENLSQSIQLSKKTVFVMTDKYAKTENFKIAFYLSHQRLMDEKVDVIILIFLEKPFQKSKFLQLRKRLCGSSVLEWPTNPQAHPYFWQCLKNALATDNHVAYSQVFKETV
The experiment is described as follows: TLR7 reporter gene assay (HEK-Blue-hTLR7, NFkB/AP-1 inducible SEAP). The class given is cell-based. The note with it: HEK-Blue-hTLR7; read-out: EC50 in the TLR7 reporter gene assay. How it is done: (§1) 2) TLR Stimulation Assay:
(§2) Compounds are tested for stimulation of human TLR7 and TLR8, respectively, via reporter gene expression analyzed in a cell line stably transfected with human TLR7 and TLR8, respectively, and coexpressing an NFkB/AP-1 inducible SEAP reporter gene. Stimulation with a TLR ligand leads to NFkB/AP-1 activation and upregulation and secretion of SEAP, which can be measured in the supernatant with QuantiBlue™ detection system (InvivoGen).
Cell lines used were either HEK-Blue-hTLR7 (InvivoGen #hkb-htlr7) or HEK-Blue-hTLR8 (InvivoGen #hkb-htlr8). Cells were cultured following manufacturer's instructions.
Assay: • prepare cell suspensions of each cell line with Nv=0.11×10^6 cells/ml in medium (DMEM 4.5 g/l Glucose, 2-4 mM L-glutamine+10% FBS) without antibiotics (Nv=number of living cells) • add 180 μl of the suspensions per well of a 96 well flat bottom cell culture plates (coster, #3506) • incubate the plates overnight at 37° C. and 5% CO2 • prepare samples and controls as solutions in DMSO: R848, CL075 (TLR 7/8 agonist by InvivoGen) and Guardiquimod each to a final concentration of 10 μM, ODN2006 (InvivoGen) and ODN2216 (InvivoGen) each to a final concentration 2 μM; • compounds of the invention are applied in dilution series to final concentrations of 30, 10, 3, 1, etc. μM • add 20 μl diluted compounds and controls (see above) to the wells • incubate plates for 20-24 h at 37° C. and 5% CO2 • prepare QuantiBlue™ (InvivoGen #10H19-MM) solution, following manufacturer's instructions: solubilize the powder of one pouch in 100 ml MilliQ grade water, heat at 37° C. in a water bath for about 30 min, filter the solution with a paper filter • add 100 μl prepared QuantiBlue™ solution in each well of a 96 well plate with flat bottom • add […] cell culture supernatant from the induced cells per well • incubate plates for 1 to 1.5 h at 37° C. (until an intense blue color has developed) • read OD at 620 nm with a plate reader • calculate EC50 from data points
(A reporter such as luciferase makes a cellular process visible.)

For a further experiment, the target named is T2, human TLR8 (Homo sapiens, UniProt Q9NR97).
T2 construct: host or cells: HEK-Blue-hTLR8
T2 sequence (Q9NR97 27-1041): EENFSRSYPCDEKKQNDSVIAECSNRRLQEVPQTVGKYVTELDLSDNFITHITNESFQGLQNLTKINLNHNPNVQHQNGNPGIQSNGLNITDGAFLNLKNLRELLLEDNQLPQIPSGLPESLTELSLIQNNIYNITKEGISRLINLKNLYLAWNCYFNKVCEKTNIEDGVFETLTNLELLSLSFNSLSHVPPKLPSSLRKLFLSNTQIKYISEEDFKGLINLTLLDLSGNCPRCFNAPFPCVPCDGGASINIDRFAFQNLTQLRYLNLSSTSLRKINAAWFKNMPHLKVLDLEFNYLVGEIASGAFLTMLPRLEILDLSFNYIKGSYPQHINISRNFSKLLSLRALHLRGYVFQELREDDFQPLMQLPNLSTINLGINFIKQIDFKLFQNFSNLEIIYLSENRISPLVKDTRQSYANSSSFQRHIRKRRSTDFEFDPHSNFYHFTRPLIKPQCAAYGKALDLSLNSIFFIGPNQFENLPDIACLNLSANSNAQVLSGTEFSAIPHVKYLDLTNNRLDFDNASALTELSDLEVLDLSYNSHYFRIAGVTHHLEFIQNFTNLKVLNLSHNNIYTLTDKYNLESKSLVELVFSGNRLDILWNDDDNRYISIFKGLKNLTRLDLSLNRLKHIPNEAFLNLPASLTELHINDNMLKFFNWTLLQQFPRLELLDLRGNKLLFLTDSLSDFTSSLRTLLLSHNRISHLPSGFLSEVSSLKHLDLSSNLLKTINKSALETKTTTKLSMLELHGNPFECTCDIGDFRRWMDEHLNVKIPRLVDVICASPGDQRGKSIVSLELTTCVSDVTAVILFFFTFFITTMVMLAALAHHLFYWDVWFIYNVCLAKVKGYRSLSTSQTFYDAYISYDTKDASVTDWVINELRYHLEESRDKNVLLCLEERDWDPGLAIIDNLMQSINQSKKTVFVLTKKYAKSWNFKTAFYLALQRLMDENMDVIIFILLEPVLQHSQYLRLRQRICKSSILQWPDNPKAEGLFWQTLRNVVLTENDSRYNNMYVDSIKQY
The experiment is described as follows: TLR8 reporter gene assay (HEK-Blue-hTLR8, NFkB/AP-1 inducible SEAP). Format: cell-based. The procedure:
as §1, §2
Cell lines used were either HEK-Blue-hTLR7 (InvivoGen #hkb-htlr7) or HEK-Blue-hTLR8 (InvivoGen #hkb-htlr8). Cells were cultured following manufacturer's instructions. […]

The text below walks through data of patent US12054485B2, “Substituted imidazoquinolines” (BIONTECH SE, priority 2017, dated 2024).

As usually defined, the EC50 is the midpoint of the concentration-response curve.

As to `CCc1nc2c(N)nc3ccccc3c2n1CCCCN(C(C)=O)C1CCOCC1` [Example 1, N-(4-(4-Amino-2-ethyl-1H-imidazo[4,5-c]quinolin-1-yl)butyl)-N-(tetrahydro-2H-pyran-4-yl)acetamide], at human TLR7, the EC50 was 44 nM. In addition, the “activity towards TLR8 in the TLR8 reporter gene assay” value on human TLR8 was “no activity”.
